One data set concerns the target T1, human IL-23R (Homo sapiens, UniProt Q5VWK5).
T1 sequence (Q5VWK5 22-629): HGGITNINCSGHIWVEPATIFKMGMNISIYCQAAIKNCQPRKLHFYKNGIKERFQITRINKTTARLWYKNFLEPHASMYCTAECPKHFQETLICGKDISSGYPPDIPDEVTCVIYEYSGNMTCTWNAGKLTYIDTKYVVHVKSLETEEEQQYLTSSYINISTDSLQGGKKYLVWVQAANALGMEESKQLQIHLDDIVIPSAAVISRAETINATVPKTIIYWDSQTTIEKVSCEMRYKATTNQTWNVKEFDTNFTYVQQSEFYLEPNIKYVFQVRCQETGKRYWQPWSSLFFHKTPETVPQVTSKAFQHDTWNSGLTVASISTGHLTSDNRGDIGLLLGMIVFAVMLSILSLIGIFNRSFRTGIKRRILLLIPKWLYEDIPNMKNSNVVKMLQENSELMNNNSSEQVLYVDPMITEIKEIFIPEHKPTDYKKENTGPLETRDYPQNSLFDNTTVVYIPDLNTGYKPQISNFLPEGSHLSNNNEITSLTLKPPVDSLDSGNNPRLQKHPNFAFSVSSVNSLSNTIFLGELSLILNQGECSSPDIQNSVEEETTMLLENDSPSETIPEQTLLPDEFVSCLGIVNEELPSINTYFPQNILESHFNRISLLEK
Briefly: biochemical. Conditions: for Emax: read-out: % displacement (hIL-23R binding). An outline of the steps: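 BRET displacement of a TAMRA-labelled reference compound from N-terminal Nanoluc-IL-23R fusion protein in membranes from stably transfected HEK293 cells. Incubation 2 h at room temperature, then Nanoluc substrate was added and the TAMRA/Nanoluc ratio read. IC50 and maximal displacement came from 4-parameter logistic fits.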

A short description of data set [1]: Peptide stability in simulated gastric fluid (SGF). Conditions: 37 °C, pH 1.2, porcine pepsin 3.2 g/L; for remaining at 4 h, 10 µM / remaining at 1 h, 10 µM: pig, simulated gastric fluid (SGF) with porcine pepsin; for SGF (% remaining 1 h) / SGF (% remaining 4 h): 10 µM. It is filed as in vitro ADME. On the procedure: (§1) SGF was prepared by dissolving sodium chloride (0.2 g) in 50 mL of water. A volume of 0.7 mL of 10 M HCl was added to adjust the pH of the solution to 1.2 and the volume made up to 100 mL with water. […] SIF was prepared by dissolving monobasic potassium phosphate (0.68 g) in 50 mL of water and adjusting the pH to 6.8 with 1 M NaOH. The volume was subsequently made up to 100 mL with water. 200 mg porcine pancreatin (P1625, Sigma Aldrich) was gently dissolved into 20 mL preheated (37 °C) solution (10 g/L) immediately prior to the incubation.
(§2) The incubation was performed at 37 °C with gentle shaking. […] After the last timepoint, the sampling plate was mixed for 10 min on a shaking table and centrifuged 10 min at 2200 g. 70 µL resulting supernatant was diluted with 150 µL water, mixed and centrifugated before analysis by liquid chromatography high resolution mass spectrometry. […] Percent remaining at each timepoint was calculated relative to timepoint zero based on absolute peak areas.
Compounds with a SGF stability (after 4 h) above 70% are considered highly SGF stable. […] Table 3-4: SGF data

Data set [2] is described as follows: Peptide stability in simulated intestinal fluid (SIF). It is filed as in vitro ADME. Conditions: 37 °C, pH 6.8, porcine pancreatin 10 g/L, 10 µM; for remaining at 4 h, 10 µM / remaining at 1 h, 10 µM: pig, simulated intestinal fluid (SIF) with porcine pancreatin; for remaining at 4 h, 10 µM: read-out: SIF (% remaining 4 h). On the procedure: as §1, §2
Compounds with a SIF stability (after 4 h) above 70% are considered highly SIF stable.

*1 amine or outer side, *2 acyl side, *3 side chain or, on linkers, in order; H or OH if unused. Where a SMILES comes first, the peptide text is derived from it. Bridges are numbered along the chain shown (N, C = ends). [ ]: non-standard residue; d: D form. 2Nal = N[C@@H](Cc1ccc2ccccc2c1)C(=O)O; AEF = NCCOc1ccc(C[C@H](N)C(=O)O)cc1; X1 = O=C(Cc1ccc(CN[*:1])cc1)[*:2]; 3Pal = N[C@@H](Cc1cccnc1)C(=O)O; αMeL = CC(C)C[C@](C)(N)C(=O)O; CH2COCH2 = O=C(C[*:1])C[*:2]; 3Amb = NCc1cccc(C(=O)O)c1; Dab = NCC[C@H](N)C(=O)O

In general, share remaining refers to the share of the starting amount still present when the sample was taken. Turning to `CC(C)C[C@]1(C)NC(=O)[C@H](Cc2ccc3ccccc3c2)NC(=O)[C@H](Cc2ccc(OCCN)cc2)NC(=O)[C@@H]2CCNC(=O)CC[C@H](NC(=O)[C@H](CO)NC(=O)Cc3ccc(cc3)CNC(=O)CC[C@@H](C(=O)N[C@@H](CCN)C(=O)N[C@@H](Cc3cn(C)cn3)C(N)=O)NC1=O)C(=O)N[C@@H](Cc1c[nH]c3ccccc13)C(=O)N[C@@H](CCC(N)=O)C(=O)N2` [Compound 14, [4-Aminomethyl-phenylacetyl](1c)*SE(2c)WQ[Dab](2c)[Y(2-aminoethoxy)][2-Nal][2-Me-Leu]E(1c)[Dab][H(Me)]-[NH2]], on human IL-23R, the “% displacement (hIL-23R binding)” value was 102%. Further, the amount remaining at 4 h, 10 µM was 82% in data set [1] and 75% in data set [2] (4 h).

Turning to `CNC(=O)[C@H](Cc1cccnc1)NC(=O)[C@H](CCN)NC(=O)[C@@H]1CCC(=O)NCc2ccc(cc2)CC(=O)N[C@@H](CO)C(=O)N[C@H]2CCC(=O)NCC[C@H](NC(=O)[C@H](CCNC(C)=O)NC(=O)[C@H](Cc3c[nH]c4ccccc34)NC2=O)C(=O)N[C@@H](Cc2ccc(OCCN)cc2)C(=O)N[C@@H](Cc2ccc3ccccc3c2)C(=O)N[C@@](C)(CC(C)C)C(=O)N1` [Compound 25, [4-Aminomethyl-phenylacetyl](1c)*SE(2c)W[Dab(Ac)][Dab](2c)[Y(2-aminoethoxy)][2-Nal][2-Me-Leu]E(1c)[Dab][3-(3-Pyridyl)-Ala]-[NHMe]] ([X1]SEW[Dab](Ac)[Dab][AEF][2Nal][αMeL]E[Dab][3Pal]-NHMe; lactam 3-6, N-10), the Emax on human IL-23R was found to be 93%. Besides, the share remaining at 4 h, 10 µM in data set [1] is 88%; in data set [2] (4 h) it was 91%.

The IC50 is the midpoint of a concentration-inhibition curve. A high value points to weaker potency in that assay. On to `CNC(=O)[C@H](Cc1cccnc1)NC(=O)[C@@H](CO)NC(=O)[C@@H]1CCC(=O)NCc2ccc(cc2)CC(=O)N[C@@H](CO)C(=O)N[C@H]2CCC(=O)NCC[C@H](NC(=O)[C@H](CCC(N)=O)NC(=O)[C@H](Cc3c[nH]c4ccccc34)NC2=O)C(=O)N[C@@H](Cc2ccc(OCCN)cc2)C(=O)N[C@@H](Cc2ccc3ccccc3c2)C(=O)N[C@@](C)(CC(C)C)C(=O)N1` [Compound 38, [4-Aminomethyl-phenylacetyl](1c)*SE(2c)WQ[Dab](2c)[Y(2-aminoethoxy)][2-Nal][2-Me-Leu]E(1c)[{d}S][3-(3-Pyridyl)-Ala]-[NHMe]], for which, on human IL-23R, the “% displacement (hIL-23R binding)” value was 102% and half-maximal inhibition (IC50) required 66 pM. The same compound gave a fraction remaining at 4 h, 10 µM in data set [1] of 91%. For the same compound, the fraction remaining at 4 h, 10 µM in data set [2] (4 h) was 65%.

As for `CNC(=O)[C@H](Cc1cccnc1)NC(=O)[C@H](CCO)NC(=O)[C@@H]1CCC(=O)NCc2ccc(cc2)CC(=O)N[C@@H](CO)C(=O)N[C@H]2CCC(=O)NCC[C@H](NC(=O)[C@H](CCC(N)=O)NC(=O)[C@H](Cc3c[nH]c4ccccc34)NC2=O)C(=O)N[C@@H](Cc2ccc(OCCN)cc2)C(=O)N[C@@H](Cc2ccc3ccccc3c2)C(=O)N[C@@](C)(CC(C)C)C(=O)N1` [Compound 36, [4-Aminomethyl-phenylacetyl](1c)*SE(2c)WQ[Dab](2c)[Y(2-aminoethoxy)][2-Nal][2-Me-Leu]E(1c)[hSer][3-(3-Pyridyl)-Ala]-[NHMe]], at human IL-23R, the “% displacement (hIL-23R binding)” value is listed as 94% and the IC50 is 14 pM. Further, the share remaining at 1 h, 10 µM in data set [1] was 96%. Besides, the fraction remaining at 4 h, 10 µM in data set [2] (4 h) is 55%.

`CC(C)C[C@@H]1NC(=O)[C@H](Cc2c[nH]c3ccccc23)NC(=O)[C@H](Cc2c[nH]c3ccccc23)NC(=O)[C@@H]2CSCC(=O)CSC[C@H](NC(=O)[C@H](CO)NC(=O)[C@@H](NC(=O)[C@@H](N)CC(=O)O)CSCC(=O)CSC[C@@H](C(=O)N[C@@H](CCCNC(=N)N)C(N)=O)NC1=O)C(=O)N[C@@H](Cc1c[nH]c3ccccc13)C(=O)N[C@@H](CCC(N)=O)C(=O)N2` (single isomer, unassigned) [I3 (isomer 3), H-DC(1a)SC(2a)WQC(2a)WWLC(1a)R-[NH2], reference compound]: in data set [1], the “SGF (% remaining 1 h)” value is on record as 5% and the “SGF (% remaining 4 h)” value was 0%. Further, in data set [2] (1 h), the “SIF (% remaining 1 h)” value is 0%. Moreover, the “SIF (% remaining 4 h)” value in data set [2] (4 h) is listed as 0%.

As to `CNC(=O)[C@H](Cc1cccnc1)NC(=O)[C@H](COC)NC(=O)[C@@H]1CCC(=O)NCc2ccc(cc2)CC(=O)N[C@@H](CO)C(=O)N[C@H]2CCC(=O)NCC[C@H](NC(=O)[C@H](CCC(N)=O)NC(=O)[C@H](Cc3c[nH]c4ccccc34)NC2=O)C(=O)N[C@@H](Cc2ccc(OCCN)cc2)C(=O)N[C@@H](Cc2ccc3ccccc3c2)C(=O)N[C@@](C)(CC(C)C)C(=O)N1` [Compound 37, [4-Aminomethyl-phenylacetyl](1c)*SE(2c)WQ[Dab](2c)[Y(2-aminoethoxy)][2-Nal][2-Me-Leu]E(1 c)[Ser(OMe)][3-(3-Pyridyl)-Ala]-[NHMe]], at human IL-23R, the “% displacement (hIL-23R binding)” value worked out at 95% and half-maximal inhibition (IC50) required 13 pM. The compound further returned an amount remaining at 1 h, 10 µM in data set [1] of 97%. Besides, the fraction remaining at 1 h, 10 µM in data set [2] (1 h) was 78%. Moreover, in data set [2] (4 h), the share remaining at 4 h, 10 µM was 69%.

Turning to `CC(C)C[C@@H]1NC(=O)[C@H](Cc2ccc3ccccc3c2)NC(=O)[C@H](Cc2c[nH]c3ccccc23)NC(=O)[C@@H]2CSCC(=O)CSC[C@H](NC(=O)[C@H](CO)NC(=O)c3cccc(c3)CNC(=O)CC[C@@H](C(=O)N[C@@H](CCCNC(=N)N)C(N)=O)NC1=O)C(=O)N[C@@H](Cc1c[nH]c3ccccc13)C(=O)N[C@@H](CCC(N)=O)C(=O)N2` [Ref 37, [(3-Aminomethyl)benzoyl](1c)*SC(2a)WQC(2a)W[2-Nal]LE(1c)R-[NH2], reference compound] ([3Amb]SCWQCW[2Nal]LER-NH2; linker 3-6 via CH2COCH2; lactam N-10), in data set [1], the “SGF (% remaining 1 h)” value is on record as 2% and the “SGF (% remaining 4 h)” value is reported as 1%.

On to `CNC(=O)[C@H](Cc1cccnc1)NC(=O)[C@](C)(CO)NC(=O)[C@@H]1CCC(=O)NCc2ccc(cc2)CC(=O)N[C@@H](CO)C(=O)N[C@H]2CCC(=O)NCC[C@H](NC(=O)[C@H](CCC(N)=O)NC(=O)[C@H](Cc3c[nH]c4ccccc34)NC2=O)C(=O)N[C@@H](Cc2ccc(OCCN)cc2)C(=O)N[C@@H](Cc2ccc3ccccc3c2)C(=O)N[C@@](C)(CC(C)C)C(=O)N1` [Compound 39, [4-Aminomethyl-phenylacetyl](1c)*SE(2c)WQ[Dab](2c)[Y(2-aminoethoxy)][2-Nal][2-Me-Leu]E(1c)[2-Me-Ser][3-(3-Pyridyl)-Ala]-[NHMe]], for which the Emax at human IL-23R was found to be 99%. Further, the fraction remaining at 1 h, 10 µM was 99% in data set [1] and 100% in data set [2] (1 h).

As for `CC(C)C[C@@H]1NC(=O)[C@H](Cc2c[nH]c3ccccc23)NC(=O)[C@H](Cc2c[nH]c3ccccc23)NC(=O)[C@@H]2CSCC(=O)CSC[C@H](NC(=O)[C@H](CO)NC(=O)[C@@H](NC(=O)[C@@H](N)CC(=O)O)CCC(=O)NCCCC[C@@H](C(=O)N[C@@H](CCCNC(=N)N)C(N)=O)NC1=O)C(=O)N[C@@H](Cc1c[nH]c3ccccc13)C(=O)N[C@@H](CCC(N)=O)C(=O)N2` [Ref 4, H-DE(1c)SC(2a)WQC(2a)WWLK(1c)R-[NH2], reference compound] (HELM PEPTIDE1{D.E.S.C.W.Q.C.W.W.L.K.R.[am]}|CHEM1{[O=C(C[*:1])C[*:2]]}$PEPTIDE1,PEPTIDE1,2:R3-11:R3|PEPTIDE1,CHEM1,4:R3-1:R1|PEPTIDE1,CHEM1,7:R3-1:R2$$$V2.0), in data set [1], the “SGF (% remaining 1 h)” value is on record as 1% and the “SGF (% remaining 4 h)” value was 0%.

These data come from patent EP4471049A1 (Zealand Pharma A/S, priority 2023, dated 2024).
